Each structure is given as a SMILES string.

Test [1] in a line: The compound was tested for its competitive inhibitory activity against Alpha-mannosidase.
Test [2] in a line: The compound was tested for its inhibitory activity against alpha-mannosidase using p-nitrophenylmannopyranoside as substrate.

On to `O=[N+]([O-])c1ccc(O/N=C2\OC(CO)C(O)C(O)C2O)c([N+](=O)[O-])c1` (centres undefined), for which, in test [1], the affinity, expressed as Ki, was 50 µM. The Michaelis-Menten constant (Km) in test [2] is 570 µM.
The matching figures for `O=C(Nc1ccccc1)O/N=C1\OC(CO)C(O)C(O)C1O` (centres undefined): 80 µM and 1200 µM.

As usually defined, the Ki is the dissociation constant of the complex between target and ligand, obtained from inhibition or displacement. A higher Ki goes with weaker binding. As usually defined, the Km is the concentration of substrate that gives half-maximal velocity.

(Values after ChEMBL document CHEMBL1131404, “A new strong inhibitor of beta-mannosidase” (Bioorg Med Chem Lett, 1998).)
